# Laboratory results from patent US20250214962A1, “PYRIDINONE DERIVATIVES AS SELECTIVE CYTOTOXIC AGENTS AGAINST HIV INFECTED CELLS” (Merck Sharp & Dohme LLC, priority 2019, published 2025).
# Read-outs that look alike come from different tables or passages of the source.
# Key:
# [1] = test system: infected PBMCs (VSV-G pseudotyped HIV virus); test: cells; assay type: cell-based, human; conditions: read-out: SMACK EC50_50% NHS
# Viking EC50, 50% NHS = assay type: cell-based; conditions: method not described, read-out: Viking EC50_50% NHS
SMILES,"EC50 ([1]; Homo sapiens, PBMC)","EC50 (Viking EC50, 50% NHS)",EC50 [1]
"CC(F)c1ncn(Cc2ccc(CO)[nH]c2=O)c(=O)c1Oc1cc(Cl)cc(C#N)c1F (single isomer, unassigned) [Example 32, 5-Chloro-2-Fluoro-3-((4-(1-Fluoroethyl)-1-((6-(Hydroxymethyl)-2-Oxo-1,2-Dihydropyridin-3-Yl)Methyl)-6-Oxo-1,6-Dihydropyrimidin-5-Yl)Oxy)Benzonitrile]",0.377 µM,0.0182 µM,
"CC(F)c1ncn(Cc2ccc(CO)[nH]c2=O)c(=O)c1Oc1cc(Cl)cc(C#N)c1F (single isomer, unassigned) [Example 33, 5-Chloro-2-Fluoro-3-((4-(1-Fluoroethyl)-1-((6-(Hydroxymethyl)-2-Oxo-1,2-Dihydropyridin-3-Yl)Methyl)-6-Oxo-1,6-Dihydropyrimidin-5-Yl)Oxy)Benzonitrile]",,0.0232 µM,0.389 µM
"CC(O)c1ccc(Cn2cnc(C(F)(F)C(F)F)c(Oc3cc(Cl)cc(C#N)c3F)c2=O)c(=O)[nH]1 (single isomer, unassigned) [Example 34]",0.27 µM,0.0432 µM,
"COCc1ccc(Cn2cnc(C(F)(F)C(F)F)c(Oc3cc(Cl)cc(C#N)c3F)c2=O)c(=O)[nH]1 [Example 1, 5-Chloro-2-Fluoro-3-((1-((6-(Methoxymethyl)-2-Oxo-1,2-Dihydropyridin-3-Yl)Methyl)-6-Oxo-4-(1,1,2,2-Tetrafluoroethyl)-1,6-Dihydropyrimidin-5-Yl)Oxy)Benzonitrile]",0.258 µM,0.0295 µM,
"Cc1cc(C)c(Cn2cnc(C(C)(F)F)c(Oc3cc(Cl)cc(C#N)c3F)c2=O)c(=O)[nH]1 [Example 2, 5-chloro-3-((4-(1,1-difluoroethyl)-1-((4,6-dimethyl-2-oxo-1,2-dihydropyridin-3-yl)methyl)-6-oxo-1,6-dihydropyrimidin-5-yl)oxy)-2-fluorobenzonitrile]",0.293 µM,0.0374 µM,
"Cc1ccc(Cn2cnc(C(C)(F)F)c(Oc3cc(Cl)cc(C#N)c3F)c2=O)c(=O)[nH]1 [Example 3, 5-chloro-3-((4-(1,1-difluoroethyl)-1-((6-methyl-2-oxo-1,2-dihydropyridin-3-yl)methyl)-6-oxo-1,6-dihydropyrimidin-5-yl)oxy)-2-fluorobenzonitrile]",0.0876 µM,0.0141 µM,
"Cc1ccc(Cn2cnc(C(F)(F)F)c(Oc3cc(Cl)cc(C#N)c3F)c2=O)c(=O)[nH]1 [Example 4, 5-chloro-2-fluoro-3-((1-((6-methyl-2-oxo-1,2-dihydropyridin-3-yl)methyl)-6-oxo-4-(trifluoromethyl)-1,6-dihydropyrimidin-5-yl)oxy)benzonitrile]",0.197 µM,0.0411 µM,
"Cc1cc(C)c(Cn2cnc(C(F)(F)C(F)F)c(Oc3cc(C(F)F)cc(C#N)c3C)c2=O)c(=O)[nH]1 [Example 5, 5-(difluoromethyl)-3-((1-((4,6-dimethyl-2-oxo-1,2-dihydropyridin-3-yl)methyl)-6-oxo-4-(1,1,2,2-tetrafluoroethyl)-1,6-dihydropyrimidin-5-yl)oxy)-2-methylbenzonitrile]",0.161 µM,0.0471 µM,
"Cc1cc(C)c(Cn2cnc(C(F)(F)C(F)F)c(Oc3cc(Cl)cc(C#N)c3)c2=O)c(=O)[nH]1 [Example 6, 3-chloro-5-((1-((4,6-dimethyl-2-oxo-1,2-dihydropyridin-3-yl)methyl)-6-oxo-4-(1,1,2,2-tetrafluoroethyl)-1,6-dihydropyrimidin-5-yl)oxy)benzonitrile]",0.263 µM,0.0375 µM,
"Cc1cc(C)c(Cn2cnc(C(F)(F)C(F)F)c(Oc3cc(Br)cc(C#N)c3)c2=O)c(=O)[nH]1 [Example 7, 3-bromo-5-((1-((4,6-dimethyl-2-oxo-1,2-dihydropyridin-3-yl)methyl)-6-oxo-4-(1,1,2,2-tetrafluoroethyl)-1,6-dihydropyrimidin-5-yl)oxy)benzonitrile]",0.433 µM,0.0291 µM,
"N#Cc1cc(Cl)cc(Oc2c(C(F)(F)C(F)F)ncn(Cc3ccc[nH]c3=O)c2=O)c1Cl [Example 8, 2,5-dichloro-3-((6-oxo-1-((2-oxo-1,2-dihydropyridin-3-yl)methyl)-4-(1,1,2,2-tetrafluoroethyl)-1,6-dihydropyrimidin-5-yl)oxy)benzonitrile]",0.495 µM,0.0269 µM,
Cc1ccc(Cn2cnc(C(F)(F)C(F)F)c(Oc3cc(F)cc(C#N)c3C)c2=O)c(=O)[nH]1 [Example 9],0.281 µM,0.0157 µM,
"Cc1cc(C)c(Cn2cnc(C(F)(F)C(F)F)c(Oc3c(C)cc(C#N)cc3C)c2=O)c(=O)[nH]1 [Example 10, 4-((1-((4,6-dimethyl-2-oxo-1,2-dihydropyridin-3-yl)methyl)-6-oxo-4-(1,1,2,2-tetrafluoroethyl)-1,6-dihydropyrimidin-5-yl)oxy)-3,5-dimethylbenzonitrile]",0.246 µM,,
"Cc1c(C#N)cc(C(F)F)cc1Oc1c(C(F)(F)C(F)F)ncn(Cc2cc(Br)c[nH]c2=O)c1=O [Example 11, 3-((1-((5-bromo-2-oxo-1,2-dihydropyridin-3-yl)methyl)-6-oxo-4-(1,1,2,2-tetrafluoroethy)-1,6-dihydropyrimidin-5-yl)oxy)-5-(difluoromethyl)-2-methylbenzonitrile]",0.402 µM,,
"Cc1c(C#N)cc(Cl)cc1Oc1c(C(C)F)ncn(Cc2ccc(-c3cc[nH]n3)[nH]c2=O)c1=O (stereo not shown) [Example 12, 5-chloro-3-((4-(1-fluoroethyl)-6-oxo-1-((2-oxo-6-(1H-pyrazol-3-yl)-1,2-dihydropyridin-3-yl)methyl)-1,6-dihydropyrimidin-5-yl)oxy)-2-methylbenzonitrile]",0.374 µM,0.127 µM,
"Cc1c(C#N)cc(Cl)cc1Oc1c(C(F)(F)F)ncn(Cc2ccc(-c3cc[nH]n3)[nH]c2=O)c1=O [Example 13, 5-chloro-2-methyl-3-((6-oxo-1-((2-oxo-6-(1H-pyrazol-3-yl)-1,2-dihydropyridin-3-yl)methyl)-4-(trifluoromethyl)-1,6-dihydropyrimidin-5-yl)oxy)benzonitrile]",0.295 µM,0.343 µM,
"Cc1c(C#N)cc(C(F)F)cc1Oc1c(C(F)(F)C(F)F)ncn(Cc2cc(F)c[nH]c2=O)c1=O [Example 14, 5-(Difluoromethyl)-3-((1-((5-Fluoro-2-Oxo-1,2-Dihydropyridin-3-Yl)Methyl)-6-Oxo-4-(1,1,2,2-Tetrafluoroethyl)-1,6-Dihydropyrimidin-5-Yl)Oxy)-2-Methylbenzonitrile]",0.101 µM,0.0295 µM,
"Cc1cc(C#N)cc(Oc2c(C(C)(F)F)ncn(Cc3c(C)cc(C)[nH]c3=O)c2=O)c1 [Example 15, 3-((4-(1,1-difluoroethyl)-1-((4,6-dimethyl-2-oxo-1,2-dihydropyridin-3-yl)methyl)-6-oxo-1,6-dihydropyrimidin-5-yl)oxy)-5-methylbenzonitrile]",0.384 µM,0.0219 µM,
"Cc1c(C#N)cc(C(F)F)cc1Oc1c(C(F)(F)F)ncn(Cc2ccc[nH]c2=O)c1=O [Example 16, 5-(difluoromethyl)-2-methyl-3-((6-oxo-1-((2-oxo-1,2-dihydropyridin-3-yl)methyl)-4-(trifluoromethyl)-1,6-dihydropyrimidin-5-yl)oxy)benzonitrile]",0.268 µM,0.00708 µM,
"Cc1c(C#N)cc(C(F)F)cc1Oc1c(C(F)(F)C(F)F)ncn(Cc2ccc(CCCO)[nH]c2=O)c1=O [Example 28, 5-(difluoromethyl)-3-((1-((6-(3-hydroxypropyl)-2-oxo-1,2-dihydropyridin-3-yl)methyl)-6-oxo-4-(1,1,2,2-tetrafluoroethyl)-1,6-dihydropyrimidin-5-yl)oxy)-2-methylbenzonitrile]",0.0738 µM,,
